# Molecular target: HEK cells stably transfected with tetracycline inducible hNR1 and hNR2A (Homo sapiens (Human), UniProt Q05586+Q12879)
# Assay: Assay 1: Cell-Based Assay (cytosolic calcium, positive allosteric modulation)
# Details: for Emax: HEK293, scaled relative to 100 μM L-glutamate maximal response (100%) and 0 μM L-glutamate (0%), with 30 μM glycine and 300 nM L-glutamate, read-out: Max %; for EC50: with 30 μM glycine and 300 nM L-glutamate (EC30), given for compounds reaching maximal response plateaus
# Description: Assay 1: Cell-Based Assay
# HEK cells stably transfected with tetracycline inducible hNR1 and hNR2A were seeded into clear bottom 384 well poly-D-lysine coated plates (2.5×10^4 cells per well) in Minimum Essential Media (MEM; without L-) including 7.5 μg mL doxycycline and 500 μM (+)-ketamine. The cells were incubated at 37° C. in 5% CO2 for 24 h. For measurement of changes in cytosolic calcium, the seeding media was removed and the cells incubated at 37° C. for 60 min with 1× Becton Dickinson Calcium Assay Kit reagent in Hanks Balanced Salt Solution (HBSS; w/o magnesium, including 1.8 mM calcium, 0.65 mg ml^−1 probenecid and 10 μM (+)-ketamine, pH 7.15) then allowed to equilibrate to rt for 30 min. Concentration-effect curves to Positive Allosteric Modulators (PAMs) were constructed by adding different concentrations (with 30 μM glycine and 300 nM L-glutamate (EC30)) to different wells in HBSS. Compounds were added after a 10 second baseline read and maximum level of relative fluorescence units (RFU) was measured over a 5 min period. Responses were scaled relative to 100 μM L-glutamate maximal response (100%) and 0 μM L-glutamate (0%). EC50 values are provided for compounds reaching maximal response plateaus, and the max % (EC50 (--)) only if no plateau was reached.
# A four-parameter Hill equation was fitted to individual concentration-effect curves:
# [formula] in which Y, S0, Sinf, AC50, n and c were effect, lower-asymptote, upper-asymptote, mid-point location, slope parameter, and concentration respectively.
# Sequence of HEK cells stably transfected with tetracycline inducible hNR1 and hNR2A (Q12879 23-1464, other chains not shown): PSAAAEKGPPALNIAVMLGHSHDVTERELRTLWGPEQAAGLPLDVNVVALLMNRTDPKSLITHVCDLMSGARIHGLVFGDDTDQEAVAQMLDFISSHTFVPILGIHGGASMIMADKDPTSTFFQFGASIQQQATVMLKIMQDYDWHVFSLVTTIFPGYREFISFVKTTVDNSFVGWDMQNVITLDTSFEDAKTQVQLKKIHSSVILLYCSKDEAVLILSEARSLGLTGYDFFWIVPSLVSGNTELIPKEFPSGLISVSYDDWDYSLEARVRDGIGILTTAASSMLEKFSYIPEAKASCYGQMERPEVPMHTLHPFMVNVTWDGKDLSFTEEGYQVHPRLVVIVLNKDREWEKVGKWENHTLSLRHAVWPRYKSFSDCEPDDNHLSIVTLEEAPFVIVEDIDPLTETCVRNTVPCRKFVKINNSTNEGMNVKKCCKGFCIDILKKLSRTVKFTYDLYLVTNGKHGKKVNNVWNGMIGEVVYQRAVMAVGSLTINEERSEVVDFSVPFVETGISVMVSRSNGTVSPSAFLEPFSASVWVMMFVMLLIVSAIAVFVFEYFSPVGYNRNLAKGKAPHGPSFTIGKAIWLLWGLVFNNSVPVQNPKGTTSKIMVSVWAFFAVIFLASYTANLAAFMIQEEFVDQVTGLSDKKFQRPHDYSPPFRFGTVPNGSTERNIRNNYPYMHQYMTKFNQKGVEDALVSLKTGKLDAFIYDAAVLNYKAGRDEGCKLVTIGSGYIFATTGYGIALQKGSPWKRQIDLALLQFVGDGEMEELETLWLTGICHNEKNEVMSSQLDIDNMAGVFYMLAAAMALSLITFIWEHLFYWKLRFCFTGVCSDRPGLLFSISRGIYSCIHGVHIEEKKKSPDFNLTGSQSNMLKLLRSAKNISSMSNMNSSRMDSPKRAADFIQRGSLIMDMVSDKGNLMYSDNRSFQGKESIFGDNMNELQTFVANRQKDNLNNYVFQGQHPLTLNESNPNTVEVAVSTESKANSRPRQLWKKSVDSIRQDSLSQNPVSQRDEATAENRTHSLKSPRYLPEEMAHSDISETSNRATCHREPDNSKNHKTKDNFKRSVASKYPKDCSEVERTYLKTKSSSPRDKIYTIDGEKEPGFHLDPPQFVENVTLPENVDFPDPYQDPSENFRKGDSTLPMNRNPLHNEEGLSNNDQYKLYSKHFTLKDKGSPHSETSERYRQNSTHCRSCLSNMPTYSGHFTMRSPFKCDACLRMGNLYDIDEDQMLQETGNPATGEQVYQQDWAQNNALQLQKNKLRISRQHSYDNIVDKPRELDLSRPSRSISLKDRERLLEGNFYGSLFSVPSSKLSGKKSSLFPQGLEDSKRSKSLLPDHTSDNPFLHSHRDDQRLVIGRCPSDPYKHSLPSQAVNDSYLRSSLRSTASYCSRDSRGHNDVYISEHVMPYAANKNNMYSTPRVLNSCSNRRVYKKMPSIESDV
Compound,Emax,EC50
"Cc1cc([C@@H]2C[C@H]2C#N)n2c(=O)cc(Cn3nc(Cl)cc3Cl)nc2c1 [Compound 57, (1R,2R)-2-(2-((3,5-dichloro-1H-pyrazol-1-yl)methyl)-8-methyl-4-oxo-4H-pyrido[1,2-a]pyrimidin-6-yl)cyclopropanecarbonitrile]",154%,0.222 µM
"CNC(=O)c1c(C)ccc2nc(Cn3nc(C4CC4)cc3C(F)(F)F)cc(=O)n12 [Compound 30, 2-[[3-cyclopropyl-5-(trifluoromethyl)pyrazol-1-yl]methyl]-N,7-dimethyl-4-oxo-pyrido[1,2-a]pyrimidine-6-carboxamide]",101%,
"CCN(Cc1cc(=O)n2c(C)cccc2n1)c1ccc(F)cc1 [Compound 7, 2-[(N-ethyl-4-fluoro-anilino)methyl]-6-methyl-pyrido[1,2-a]pyrimidin-4-one]",111%,13.6 µM
"N#C[C@H]1C[C@@H]1c1c(Cl)ccc2nc(Cn3nc(C(F)(F)F)cc3Cl)cc(=O)n12 [Compound 42, (1S,2S)-2-[7-chloro-2-[[5-chloro-3-(trifluoromethyl)pyrazol-1-yl]methyl]-4-oxo-pyrido[1,2-a]pyrimidin-6-yl]cyclopropanecarbonitrile]",110%,10.6 µM
"CCN(Cc1cc(=O)n2c(-c3cncnc3)cccc2n1)c1ccc(F)cc1 [Compound 12, 2-[(N-ethyl-4-fluoro-anilino)methyl]-6-pyrimidin-5-yl-pyrido[1,2-a]pyrimidin-4-one]",161%,6.4 µM
"O=c1cc(Cn2nc(C(F)(F)F)cc2Cl)nc2cc(C(F)(F)F)cc(Cl)n12 [Compound 54, 6-chloro-2-[[5-chloro-3-(trifluoromethyl)pyrazol-1-yl]methyl]-8-(trifluoromethyl)pyrido[1,2-a]pyrimidin-4-one]",150%,24.7 µM
"CCNC(=O)c1cccc2nc(Cn3nc(C(F)(F)F)cc3C3CC3)cc(=O)n12 [Compound 20, 2-[[5-cyclopropyl-3-(trifluoromethyl)pyrazol-1-yl]methyl]-N-ethyl-4-oxo-pyrido[1,2-a]pyrimidine-6-carboxamide]",116%,7.4 µM
"CNC(=O)c1c(C)ccc2nc(Cc3cccc(Cl)c3F)cc(=O)n12 [Compound 23, 2-[(3-chloro-2-fluoro-phenyl)methyl]-N,7-dimethyl-4-oxo-pyrido[1,2-a]pyrimidine-6-carboxamide]",59%,
"CCN(Cc1cc(=O)n2c(C#N)cccc2n1)c1ccc(F)cc1 [Compound 14, 2-[(N-ethyl-4-fluoro-anilino)methyl]-4-oxo-pyrido[1,2-a]pyrimidine-6-carbonitrile]",163%,5.8 µM
"CNC(=O)c1c(C)ccc2nc(Cc3cccc(C#N)c3F)cc(=O)n12 [Compound 25, 2-[(3-cyano-2-fluoro-phenyl)methyl]-N,7-dimethyl-4-oxo-pyrido[1,2-a]pyrimidine-6-carboxamide]",51%,
"Cc1ccc2nc(Cn3nc(C(F)(F)F)cc3C3CC3)cc(=O)n2c1C(=O)NCC(F)(F)F [Compound 33, 2-[[5-cyclopropyl-3-(trifluoromethyl)pyrazol-1-yl]methyl]-7-methyl-4-oxo-N-(2,2,2-trifluoroethyl)pyrido[1,2-a]pyrimidine-6-carboxamide]",198%,
"COc1ccc2nc(Cn3nc(C(F)(F)F)cc3Cl)cc(=O)n2c1[C@H]1C[C@@H]1C#N [Compound 53, (1S,2S)-2-[2-[[5-chloro-3-(trifluoromethyl)pyrazol-1-yl]methyl]-7-methoxy-4-oxo-pyrido[1,2-a]pyrimidin-6-yl]cyclopropanecarbonitrile]",100%,
"CCN(Cc1cc(=O)n2c(OC)cccc2n1)c1ccc(F)cc1 [Compound 8, 2-[(N-ethyl-fluoro-anilino)methyl]-6-methoxy-pyrido[1,2-a]pyrimidin-4-one]",117%,
"CNC(=O)c1c(C)ccc2nc(Cn3nc(C(F)(F)F)cc3C3CC3)cc(=O)n12 [Compound 29, 2-[[5-cyclopropyl-3-(trifluoromethyl)pyrazol-1-yl]methyl]-N,7-dimethyl-4-oxo-pyrido[1,2-a]pyrimidine-6-carboxamide]",147%,5.9 µM
"CNC(=O)c1c(C)ccc2nc(Cc3cccc(Cl)c3F)c(F)c(=O)n12 [Compound 31, 2-[(3-chloro-2-fluoro-phenyl)methyl]-3-fluoro-N,7-dimethyl-4-oxo-pyrido[1,2-a]pyrimidine-6-carboxamide]",48%,
"CNC(=O)c1c(C)ccc2nc(Cc3cccc(C#N)c3F)c(F)c(=O)n12 [Compound 26, 2-[(3-cyano-2-fluoro-phenyl)methyl]-3-fluoro-N,7-dimethyl-4-oxo-pyrido[1,2-a]pyrimidine-6-carboxamide]",34%,
"CCOc1cccc2nc(CN(CC)c3ccc(F)cc3)cc(=O)n12 [Compound 9, 6-ethoxy-2-[(N-ethyl-4-fluoro-anilino)methyl]pyrido[1,2-a]pyrimidin-4-one]",120%,5 µM
"CCN(Cc1cc(=O)n2c(Br)cccc2n1)c1ccc(F)cc1 [Compound 15, 6-bromo-2-[(N-ethyl-4-fluoro-anilino)methyl]pyrido[1,2-a]pyrimidin-4-one]",159%,6.2 µM
"COc1ccc2nc(Cn3nc(Cl)cc3Cl)cc(=O)n2c1C1CC1C (stereo not drawn) [Compound 55, 2-((3,5-dichloro-1H-pyrazol-1-yl)methyl)-7-methoxy-6-(2-methylcyclopropyl)-4H-pyrido[1,2-a]pyrimidin-4-one]",116%,0.102 µM
"Cc1ccc2nc(Cn3nc(C(F)(F)F)cc3Cl)cc(=O)n2c1[C@@H]1C[C@H]1C#N [Compound 35, (1R,2R)-2-[2-[[5-chloro-3-(trifluoromethyl)pyrazol-1-yl]methyl]-7-methyl-4-oxo-pyrido[1,2-a]pyrimidin-6-yl]cyclopropanecarbonitrile]",132%,0.077 µM
"Cc1ccc2nc(Cn3nc(C(F)(F)F)cc3Cl)cc(=O)n2c1[C@@H]1C[C@H]1CO [Compound 36, 2-[[5-chloro-3-(trifluoromethyl)pyrazol-1-yl]methyl]-6-[(1R,2R)-2-(hydroxymethyl)cyclopropyl]-7-methyl-pyrido[1,2-a]pyrimidin-4-one]",135%,0.126 µM
"CCNC(=O)c1c(C)ccc2nc(Cn3nc(C(F)(F)F)cc3C3CC3)cc(=O)n12 [Compound 17, 2-[[5-cyclopropyl-3-(trifluoromethyl)pyrazol-1-yl]methyl]-N-ethyl-7-methyl-4-oxo-pyrido[1,2-a]pyrimidine-6-carboxamide]",148%,4 µM
"COc1ccc2nc(Cn3nc(C(F)(F)F)cc3Cl)cc(=O)n2c1[C@@H]1C[C@H]1C#N [Compound 52, (1R,2R)-2-[2-[[5-chloro-3-(trifluoromethyl)pyrazol-1-yl]methyl]-7-methoxy-4-oxo-pyrido[1,2-a]pyrimidin-6-yl]cyclopropanecarbonitrile]",120%,0.079 µM
"CCN(Cc1cc(=O)n2cc(C)ccc2n1)c1ccccc1 [Compound 3, 2-[(N-ethylanilino)methyl]-7-methyl-pyrido[1,2-a]pyrimidin-4-one]",122%,11.1 µM
"Cc1cc([C@H]2C[C@@H]2C#N)n2c(=O)cc(Cn3nc(C(F)(F)F)cc3Cl)nc2c1 [Compound 39, (1S,2S)-2-[2-[[5-chloro-3-(trifluoromethyl)pyrazol-1-yl]methyl]-8-methyl-4-oxo-pyrido[1,2-a]pyrimidin-6-yl]cyclopropanecarbonitrile]",120%,0.951 µM
